Data: patent US6916823B2, “Method of treatment of dopamine-related dysfunction” (Purdue Research Foundation, priority 2001, dated 2005)
Like-named read-outs stand apart in the source and are kept apart here.

Tests used:
unilateral 6-OHDA rats [1] = conditions: cited from earlier work; for efficacy in Parkinson's disease models: e.g. unilateral 6-OHDA-lesion rodent model
unilateral 6-OHDA rats [2] = experiment: rat unilateral 6-OHDA rotation model of Parkinson's disease; type: in vivo; conditions: for increase in rotation relative to vehicle: 10 h; for rotation during continuous administration: osmotic minipump s.c.
Text: Summary. In the rat unilateral 6-hydroxydopamine (6-OHDA) rotation model of Parkinson's disease, 6-OHDA is infused unilaterally into the medial forebrain bundle, the substantia nigra, or the striatum. […] When challenged with direct-acting dopamine receptor agonists, unilateral 6-OHDA rats turn contralaterally (away from the side of the lesion) because of the increased sensitivity of the postsynaptic dopamine receptors on the lesioned side. The experiments described below examine tolerance induced by the full D1 agonist, dinapsoline, using the 6-OHDA model.
Subjects. Adult male Sprague-Dawley Rats (Hilltop Laboratories, Chatsworth, Calif.), weighing between 280 and 320 grams, were used as subjects. Animals were housed individually with food and water available ad libitum, except as noted below. The light:dark schedule was 12 h:12 h, and testing was performed during the light cycle. All methods adhere to the guidelines in the Guide for the Care and Use of Experimental Animals published by the National Institutes of Health (Pub. 85-23, 1985).
Surgery. Rats were pretreated with 25 mg/kg desipramine (s.c.) approximately 30 minutes before surgery. Rats were anesthetized by inhalation of isoflurane (1.5 to 4.0%) and placed in a stereotaxic apparatus. An infusion cannula was placed in the medial forebrain bundle at the coordinates A.P. −3.8 mm, M.L. −1.5 mm, and D.V. −3.8 mm relative to bregma according to the atlas of Paxinos and Watson (1986). Ten micrograms of 6-OHDA (6-hydroxydopamine; Sigma Chemical Co., St. Louis, Mo.) in a volume of 4 μL was infused at a rate of 0.5 μL/min in a vehicle of 0.01% ascorbate. After a 14-day recovery period, rats were prescreened for rotation in response to d-amphetamine (5 mg/kg) and to apomorphine (0.3 mg/kg) 1 week later. Animals that responded to both d-amphetamine (>800 rotations in 3 h) and apomorphine (>100 rotations in 1 h) were retained for further study.
Testing of compounds began on day 28 postsurgery in each case. A new group of 6-OHDA-lesioned rats was used for each new study. In some studies, rats were implanted with a subcutaneous 14-day osmotic minipump (model 2 ML2, Alza, Palo Alto, Calif.) with a flow rate of 5.0 μL/h. The rats were re-anesthetized with 1.5 to 4% isoflurane, a small incision was made on the back of the neck, and the minipump was placed subcutaneously in the cavity. The incision was closed with sterile wound clips. Before implantation, minipumps were incubated in sterile saline (37° C.) to ensure outflow at the time of implantation. The minipumps were used to administer dinapsoline, or vehicle (50% dimethyl sulfoxide (DMSO), 12.5% ascorbic acid).
Apparatus, Procedure, and Statistics. Rats were tested for rotation in automated rotation chambers (Rotoscan, Accuscan, Columbus, Ohio). The apparatus consisted of a cylindrical Plexiglas chamber 30 cm in diameter in which the animal is fitted to a harness attached to a flexible rod connected to a rotating microswitch. Animals were allowed to habituate to chambers for 30 minutes before drug treatment in each case. Data were collected for 1 to 12 h after injection, using 15 minute time bins. Treatments were compared using one-way and repeated measures of analysis of variance (ANOVA), as appropriate; post hoc analysis was performed with Dunnett's test.
Acute Dinapsoline Administration. Beginning 1 week after the screening dose with apomorphine, subjects (n=12) were tested once per week with dinapsoline (0.02, 0.2, or 2 mg/kg) or vehicle (s.c.) using a counterbalanced design, and rotation behavior was monitored for 10 h. After the final day of testing, rats were euthanized and brains were removed for subsequent assessment of dopamine depletion. In the oral dosing experiments, a separate group of subjects (n=8) received dinapsoline (0.02, 0.2, or 2 mg/kg) or vehicle once per week using a counterbalanced design. Rats were fasted for 16 h before dosing with oral gavage, and rotation behavior was monitored for 10 h.

[3] = test system: D1 and D2 dopamine receptors; experiment: D1:D2 selectivity; type: binding
D2 receptors = experiment: D2 agonist properties
D1 receptors = molecular target: T1, D1 receptors (Rattus norvegicus, UniProt P18901); experiment: cAMP production in rat striatum; type: biochemical; conditions: for agonist activity (intrinsic activity): rat striatum / rat striatal membranes, relative to dopamine
T1 construct: increase cAMP production in rat striatum and C-6-mD1 cells; from tissue; host or cells: rat striatum (striatal membranes)

[4] = molecular target: T2, cloned expressed primate D1A receptors (Macaca mulatta, UniProt O77680); experiment: cAMP production in C-6-mD1 cells; type: cell-based; conditions: for agonist activity (intrinsic activity): C-6-mD1 cells / cloned expressed primate D1A receptors, relative to dopamine
T2 construct: expressed in transfected cells; host or cells: C-6 cells (C-6-mD1)

[5] = in vivo; cited from earlier work
[6] = molecular target: T3, rat striatal D1 receptors (Rattus norvegicus, UniProt P18901); experiment: binding affinity to D1 receptors, competition with SCH23390
T3 construct: increase cAMP production in rat striatum and C-6-mD1 cells; from tissue; host or cells: rat striatum (striatal membranes)
Text: Experiments have been conducted to determine the binding affinity of dinoxyline to D1 receptors.

[7] = A-77636 0.3 mg/kg s.c. alone, 3 h

T1 sequence (P18901 whole entry): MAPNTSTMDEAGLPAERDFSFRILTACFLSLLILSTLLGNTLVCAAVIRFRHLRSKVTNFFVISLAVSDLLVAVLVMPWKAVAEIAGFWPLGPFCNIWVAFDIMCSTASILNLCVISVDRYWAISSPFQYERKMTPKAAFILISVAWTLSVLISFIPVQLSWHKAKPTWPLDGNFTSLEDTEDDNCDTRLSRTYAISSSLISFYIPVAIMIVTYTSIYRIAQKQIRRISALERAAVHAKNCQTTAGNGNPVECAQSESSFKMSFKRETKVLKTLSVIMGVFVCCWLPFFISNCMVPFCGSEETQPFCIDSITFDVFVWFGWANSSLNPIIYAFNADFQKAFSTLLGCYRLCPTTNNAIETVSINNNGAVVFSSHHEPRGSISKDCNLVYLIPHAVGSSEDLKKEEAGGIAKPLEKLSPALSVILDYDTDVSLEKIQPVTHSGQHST
T3 sequence (P18901 whole entry): as above
T2 sequence (O77680 whole entry): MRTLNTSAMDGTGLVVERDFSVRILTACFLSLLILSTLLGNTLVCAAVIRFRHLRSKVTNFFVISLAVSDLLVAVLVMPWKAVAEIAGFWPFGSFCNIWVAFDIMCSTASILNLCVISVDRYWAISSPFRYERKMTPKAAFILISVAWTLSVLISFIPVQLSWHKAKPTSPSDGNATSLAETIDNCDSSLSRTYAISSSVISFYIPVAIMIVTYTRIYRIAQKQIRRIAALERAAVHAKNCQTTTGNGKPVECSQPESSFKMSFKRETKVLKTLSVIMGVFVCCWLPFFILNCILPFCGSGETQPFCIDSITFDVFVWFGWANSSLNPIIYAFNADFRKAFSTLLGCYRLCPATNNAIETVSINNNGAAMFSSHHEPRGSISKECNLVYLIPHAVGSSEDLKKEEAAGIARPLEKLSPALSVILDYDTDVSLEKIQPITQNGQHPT

Oc1ccc2c(c1O)Cc1cccc3c1[C@H]2CNC3 [dinapsoline]
efficacy in Parkinson's disease models (unilateral 6-OHDA rats [1]): efficacious
increase in rotation relative to vehicle (unilateral 6-OHDA rats [2]; 0.02 mg/kg s.c.): but not at 0.02 mg/kg
duration of rotation (unilateral 6-OHDA rats [2]; 0.2 mg/kg s.c.): about 5 h
increase in rotation relative to vehicle (unilateral 6-OHDA rats [2]; 0.2 mg/kg s.c.): Statistically significant increases
duration of rotation (unilateral 6-OHDA rats [2]; 2 mg/kg oral): 7 h
increase in rotation versus baseline (unilateral 6-OHDA rats [2]; 2 mg/kg oral): significantly different from baseline
change in rotational response over time (unilateral 6-OHDA rats [2]; 2 mg/kg s.c. once daily, 14 days): significant increase in response over time
behavioral tolerance (unilateral 6-OHDA rats [2]; 2 mg/kg s.c. once or twice daily, 14 days): no evidence for behavioral tolerance
change in rotational response over time (unilateral 6-OHDA rats [2]; 2 mg/kg s.c. twice daily, 14 days): significant increase in response over time
increase in rotation relative to vehicle (unilateral 6-OHDA rats [2]; 2.0 mg/kg s.c.): Statistically significant increases
rotational behavior (cumulative rotation over 10 h) (unilateral 6-OHDA rats [2]; acute 0.02, 0.2, 2 mg/kg s.c.): robust, dose-dependent rotational behavior
rotation (cumulative over 10 h) (unilateral 6-OHDA rats [2]; acute oral 0.02, 0.2, 2 mg/kg, response not dose-dependent): robust rotation
rotation after challenge dose 0.2 mg/kg s.c. on day 14 (unilateral 6-OHDA rats [2]; after 0.6 mg/kg/day by minipump): no rotation
rotation after challenge dose 0.2 mg/kg s.c. on day 14 (unilateral 6-OHDA rats [2]; after 6 mg/kg/day by minipump): no rotation
difference between groups on dinapsoline-alone challenge (unilateral 6-OHDA rats [2]; day 7, after 6 days dinapsoline with or without raclopride): no difference was observed
rotation during continuous administration (unilateral 6-OHDA rats [2]; highest dose (6 mg/kg/day)): brief behavioral response to which complete tolerance developed by 24 h
rotation during continuous administration (unilateral 6-OHDA rats [2]; lower doses (0.006, 0.06, 0.6 mg/kg/day)): no evidence of rotation
D1:D2 selectivity [3]: five-fold
D2 agonist properties (D2 receptors): some D2 agonist properties

Oc1cc2c(cc1O)[C@H]1c3ccccc3CN[C@@H]1CC2 (stereo in doubt) [dihydrexidine, (+)-trans-10,11-dihydroxy-5,6,6a,7,8,12b-hexahydrobenzo[a]phenanthridine]
efficacy in Parkinson's disease models (unilateral 6-OHDA rats [1]): efficacious
agonist activity (intrinsic activity) (D1 receptors): full agonist
agonist activity (intrinsic activity) [4]: full agonist
D1:D2 selectivity [3]: ten-fold
D2 agonist properties (D2 receptors): some D2 agonist properties

Oc1cc2c(cc1O)C(c1ccccc1)CNCC2 (single isomer, unassigned; (+)) [(+)-SKF-38393, reference compound]
agonist activity (intrinsic activity) [4]: partial agonist

CCN1CCC[C@H]1CNC(=O)c1c(O)c(Cl)cc(Cl)c1OC [raclopride, reference compound]
effect of daily coadministration on rotational response to dinapsoline (unilateral 6-OHDA rats [2]; raclopride 2 mg/kg s.c. with dinapsoline 2 mg/kg s.c., days 1 through 6): no significant difference
effect of antagonist pretreatment on rotational response to dinapsoline (unilateral 6-OHDA rats [2]; raclopride 2 mg/kg s.c., dinapsoline 0.2 mg/kg s.c., 3 h): did not reduce
effect of antagonist pretreatment on rotational response to dinapsoline (unilateral 6-OHDA rats [2]; raclopride 2 mg/kg s.c., dinapsoline 2 mg/kg s.c., 3 h): did not reduce
effect on rotation produced by quinpirole (unilateral 6-OHDA rats [2]; raclopride 2 mg/kg s.c., quinpirole 0.25 mg/kg s.c., data not shown): blocked completely

NC[C@@H]1O[C@H](C23CC4CC(CC(C4)C2)C3)Cc2c1ccc(O)c2O [Compound A-77636, reference compound]
duration of action (unilateral 6-OHDA rats [1]; Asin and Wirtshafter, 1993): 18 h
duration of rotation (unilateral 6-OHDA rats [2]; 1 mg/kg s.c.): approximately 18 h
behavioral tolerance (unilateral 6-OHDA rats [2]; 1 mg/kg s.c. once daily for 14 days, 3 h rotation): dramatic behavioral tolerance
rotation on second day of dosing (unilateral 6-OHDA rats [2]; 1 mg/kg s.c. once daily, day 2 vs day 1): significantly less rotation than on the first day
amount of rotation on fourth day of dosing (unilateral 6-OHDA rats [2]; 1 mg/kg s.c. once daily, day 4, complete tolerance): no greater than that seen with vehicle
rotation in naive animals (unilateral 6-OHDA rats [2]; 1 mg/kg s.c., first day): robust rotation
tolerance on day 3 challenge (unilateral 6-OHDA rats [2]; A-77636 0.3 mg/kg s.c. alone after 2 days A-77636 with or without quinpirole): equal tolerance in both groups
rotational response day 1 (unilateral 6-OHDA rats [2]; [7]): maximal rotational response
tolerance by day 2 (unilateral 6-OHDA rats [2]; [7]): significant tolerance
D1:D2 selectivity [3]: more strongly D1 selective than dinapsoline
plasma half-life [5]: > 6 h

CN1CCc2cc(Cl)c(O)cc2[C@@H](c2ccccc2)C1 [SCH-23390, reference compound]
duration of action (unilateral 6-OHDA rats [2]; in our assay): approximately 3 h

Br.Oc1ccc2c(c1O)Oc1cccc3c1C2CNC3 (racemic) [dinoxyline, (±)-8,9-dihydroxy-1,2,3,11b-tetrahydrochromeno[4,3,2-de]isoquinoline hydrobromide]
efficacy in Parkinson's disease models (unilateral 6-OHDA rats [1]): efficacious
agonist activity (intrinsic activity) (D1 receptors; hydrobromide): full agonist activity
EC50 (D1 receptors; rat striatum, read-out: EC50 in stimulating synthesis of cAMP via D1 receptors): < 30 nM
agonist activity (intrinsic activity) ([4]; hydrobromide): full agonist activity
EC50 ([4]; C-6-mD1 cells, read-out: EC50 in stimulating synthesis of cAMP via D1 receptors): < 30 nM
D1:D2 selectivity [3]: equally high affinity for both types of receptors
affinity for dopamine D1 receptors labeled with [3H]SCH23390 ([6]; compared with dihydrexidine): high affinity
nH of competition curve ([6]; competition with SCH23390): ca. 0.7
Ki ([6]; rat striatal D1 receptors, read-out: K0.5 (affinity)): < 5 nM
D2 agonist properties (D2 receptors): some D2 agonist properties
